In PubChem BioAssay (NCI) one finds TGI and GI50 data, which are given here for 15 compounds.

Holding throughout (experiment): growth of human tumour cells (NCI), 48 h
The subject of assay [1] is SF-295 CNS.
The subject of assay [2] is HS 578T breast.
Assay [3] deals with RPMI-8226 leukemia.
Assay [4] deals with SN12C renal.
In assay [5] the test system is MDA-MB-435.
Assay [6] relates to SW-620 colon.
Assay [7] deals with TK-10 renal.
The test system of assay [8] is A549 NSCLC.
For assay [9], the system named is SF-268 CNS.
Assay [10] relates to HCC-2998 colon.

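Where inhibition never reached the appropriate level, the endpoint shown equals the highest concentration tested. Otherwise, values were interpolated linearly from a five-concentration, 48-hour dose response in 96-well plates. GI50 = concentration required for 50% inhibition of growth. TGI denotes the concentration required for complete inhibition of growth.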

For the compound `O=C(N/N=C\c1cccc2ccccc12)Nc1ccccc1`, the TGI in assay [1], in assay [2], in assay [3], in assay [4], in assay [5] and in assay [6] was greater than 100 µM each time. In assay [7], this compound returned a TGI greater than 100 µM.

Regarding `CC1(C)CC(=O)c2c(nc3c(ccc4ccccc43)c2-c2ccc(NC(=O)CCC(=O)Nc3ccc(-c4c5c(nc6c4ccc4ccccc46)CC(C)(C)CC5=O)cc3)cc2)C1`, the TGI in assay [1], in assay [2], in assay [8], in [3], in assay [9] and in [4] was greater than 100 µM in each case. The TGI in assay [5], in [6] and in assay [7] was greater than 100 µM throughout.

As for `CCCCCCCCC/C=C1/CC(CO)(COC(=O)CC(C(C)C)C(C)C)OC1=O` (stereo unspecified), the TGI in assay [1] worked out at 16.2 µM; in assay [2], 3.91 µM; in assay [8], 13.9 µM; in assay [10], 9.86 µM; in assay [9], 25 µM; in assay [4] it was 18 µM. The results for the TGI in [5], in assay [6] and in assay [7] were 19.6 µM, 19 µM and 15.1 µM, respectively.

For `COC(=O)C1Cc2c(OC)ccc(OC)c2C(O)C1C(=O)OC` (stereo unspecified), the TGI in assay [1], in assay [2], in assay [8], in assay [3], in [9] and in [4] was greater than 100 µM throughout. The TGI in assay [5], in assay [6] and in [7] was greater than 100 µM each time.

Turning to `Cc1ccc(Cl)cc1N=NC(=O)NNc1cc(Cl)ccc1C`, the TGI in [1] was greater than 100 µM; in assay [2], 54.8 µM; in assay [3], greater than 100 µM; in assay [10], greater than 100 µM; in [4] it was 80.8 µM; in assay [5], 99 µM.

Turning to `Nc1nccc(NCC2(CO)CC(OCc3ccccc3)C2)n1` (stereo unspecified), the TGI in assay [1], in assay [2], in assay [8], in assay [3], in assay [10] and in assay [4] was greater than 100 µM throughout. Moreover, the TGI in assay [5] and in assay [6] was greater than 100 µM throughout.

Regarding `Clc1ccc(-c2cc(-c3cc4cc(Br)ccc4nc3Cl)on2)cc1`, the TGI was greater than 50 µM in [1]; greater than 50 µM in assay [2]; greater than 50 µM in assay [8]; 41.7 µM in [3]; 23.9 µM in assay [10]; 28.6 µM in [9]. The TGI was greater than 50 µM in assay [4], 32.1 µM in [5] and 27.5 µM in assay [6].

With `O=Cc1ccc(OC[C@H]2COC(=O)N2)cc1`, the TGI in [1], in [2], in assay [8], in assay [10], in assay [9] and in assay [4] was greater than 100 µM each time. In addition, the TGI in assay [5], in assay [6] and in [7] was greater than 100 µM each time.

With `COc1cccc2c1C(=O)c1c(O)c3c(c(O)c1C2=O)C[C@@](O)(C(=O)COC(=O)c1ccccc1)C[C@@H]3OC1CC(N)C(O)C(C)O1` (stereo partly specified), the GI50 in assay [3] was 0.193 µM; in [10], 0.421 µM; in [9] it was 0.173 µM; in assay [4], 0.0936 µM; in assay [5], 0.137 µM; in [6], 0.0448 µM. The GI50 in assay [7] is 0.151 µM. Besides, the TGI in assay [3] worked out at 0.61 µM; in [10], 2.32 µM; in [9] it was 1.34 µM; in assay [4], 1.12 µM; in [5], 0.284 µM; in assay [6] it was 0.253 µM. For the same compound, the TGI in assay [7] was found to be 0.879 µM.

For the compound `O=C(Nc1cccc(F)c1)c1cc2ccc(O)cc2oc1=Nc1cccc(F)c1`, the TGI in assay [1] is greater than 100 µM; in assay [2] it was 50.8 µM; in [8] it was greater than 100 µM; in assay [3], greater than 100 µM; in [10], greater than 100 µM; in [9] it was greater than 100 µM. In addition, the TGI in assay [4], in assay [5] and in assay [6] was greater than 100 µM each time.

Consider `O=c1[nH]c(SCc2cccc([N+](=O)[O-])c2)nc2nc[nH]c12`, for which the TGI in assay [1], in assay [2], in [8], in assay [3], in [9] and in assay [4] was greater than 100 µM throughout. In addition, the TGI in [5], in assay [6] and in assay [7] was greater than 100 µM in each case.

For the compound `CCCCc1ccc(-n2sc3ncc(-c4ccccc4)cc3c2=O)cc1`, the TGI in assay [1], in assay [8], in [3], in assay [10], in [4] and in [5] was greater than 100 µM each time. Moreover, the TGI in assay [6] and in assay [7] was greater than 100 µM each time.

`COc1ccc(-c2c(-c3ccc(OC)cc3)n3c(=O)n(C)c(=O)n23)cc1`: the TGI in [1], in assay [8], in assay [3], in assay [10], in [4] and in assay [5] was greater than 100 µM each time. Also, the TGI in assay [6] and in assay [7] was greater than 100 µM each time.

Take `O=C(O)c1nc2ccc(C(F)(F)F)cc2nc1Nc1ccc(Cl)c(Cl)c1`: the TGI turned out to be 17 µM in assay [1]; 41.6 µM in assay [2]; 17.6 µM in assay [10]; 21.9 µM in assay [9]; 22.1 µM in assay [4]; 19.1 µM in [5]. Besides, the TGI was 24.1 µM in assay [6] and greater than 100 µM in assay [7].

With `N#CCCN(CCC#N)c1ccc(/C=C2\N=C(c3ccccc3)N(c3ccc(C(=O)O)cc3)C2=O)cc1`, the TGI was greater than 100 µM in assay [1]; 58.5 µM in [2]; greater than 100 µM in [8]; greater than 100 µM in assay [3]; 61.6 µM in assay [9]; greater than 100 µM in assay [4]. Moreover, the TGI was greater than 100 µM in [5], 48.3 µM in assay [6] and greater than 100 µM in assay [7].
